# Measurements as given in US20250114313A1, “OLIGO-BENZAMIDE ANALOGS AND THEIR USE IN CANCER TREATMENT” (BOARD OF REGENTS, THE UNIVERSITY OF TEXAS SYSTEM, priority 2022, published 2025).
# pIC50: −log10 of the molar value. Where two headings read alike, the source gives them in different places.
# Assays:
# [1] = test system: TNBC cells (SUM-159, MDA-MB-231); experiment: MTT cell viability, TNBC cells; type: cell-based, Human; conditions: for pIC50: MTT cell viability assays, read-out: antiproliferative IC50 against TNBC cells
# Experimental: Cell viability assays: Cells were seeded in 96-well plates (2×10^3 cells/well) one day before the treatment. Cells were treated with varying concentrations of ERX-41 or ERX-11 analogs for 3-6 days. Then effects of ERX-41 or ERX-11 analogs on cell viability were measured in triplicate or sextuplicate with multiple biological replicates using the WST-1 (Promega), MTT as previously described^33 or CellTiter-Glo 2.0 (Promega) assays.
# [2] = test system: TNBC cells (MDA-MB-231); experiment: Live cell imaging with SYTOX Green, cell death in TNBC cells; type: cell-based, Human; conditions: within 30 hours of treatment; control <1%
# Experimental: Live cell imaging: Live cell images were acquired by Lionheart FX automated microscope (BioTek). Cells were plated one day before the experiment. For cell death assay, 0.2 μM SYTOX Green was added into the plate 15 min before the experiment.
# [3] = test system: LIPA KO SUM-159 cells; experiment: Live cell confocal imaging of ER tubule width, SUM-159 LIPA KO; type: cell-based, Human; conditions: 1 μM
# Experimental: Live cell confocal and Airyscan imaging: To visualize ER structure, stable SUM-159 cell lines expressing mCherry-RAMP4 were established. pLenti-X1-hygro-mCherry-RAMP4 was purchased from Addgene (Addgene #118391; //n2t.net/addgene:118391; RRID:Addgene_118391) (via Jacob Corn).^35 The live cell images were acquired by Confocal Zeiss LSM880 Airyscan. ER tubule width was calculated by drawing 1px-wide line scans perpendicular to the long axis of individual ER tubules. In MATLAB, the peak intensity along each line scan was determined and the distance between the half maximum intensity on either side of the peak was measured. The code for this analysis is available at: //github.com/andmoo91/HalfMaxScript.
# [4] = test system: primary TNBC PDEs; experiment: TNBC patient-derived explant (PDE) cultures ex vivo; type: cell-based, human
# Source text: TNBC patient-derived explant (PDE) studies: For PDE studies excised tissue samples were processed and cultured ex vivo as previously described. De-identified patient tumors were obtained from the UTSW Tissue Repository after institutional review board approval (STU-032011-187). Inclusion criteria included women with prior histologic confirmation of TNBC who were undergoing surgical extirpation or biopsy of their primary tumor. Prior treatment with chemotherapy and/or radiation was allowed. Exclusion criteria included concurrent or prior diagnosis of other malignancies or prior evidence of ERα+ or HER2+ breast cancer. All cases were reviewed by the UTSW Tissue Repository in advance and patients were consented for their tissue to be used for laboratory research. Only de-identified information was shared with the laboratory. None of the laboratory personnel had access to additional patient information. No attrition was noted. Briefly, fresh tumor samples were incubated on gelatin sponges in culture medium containing 10% FBS, followed by treatment with either vehicle or presence of 2.5 μM ERX-41 for 72 h. Representative tissues were fixed in 10% formalin at 4° C. overnight and subsequently processed into paraffin blocks. Sections were then processed for immunohistochemical analysis.
# Immunohistochemistry: Immunohistochemical studies were performed as described previously.^7 For the immunohistochemical studies, tissue sections were blocked in background sniper (Biocare Medical, RS966L) followed by overnight incubation with primary antibodies anti-Ki-67 antibody (1:1000, GeneTex cat #GTX16667 RRID:AB_422351) (link), anti-CHOP antibody (1:2000, Sigma, Cat #HPA068416), anti-PERK (phospho T982) antibody (1:150, Abcam Cat #ab192591, RRID:AB_2728666) link)), anti-phospho-eIF2α (Ser51) (1:50, Cell signaling, cs3398) and subsequent secondary antibody incubation for 60 min at room temperature. Immunoreactivity was visualized by using the DAB substrate and counterstained with hematoxylin (Vector Lab, Inc.). […]
# [5] = test system: Sum159 cells; experiment: DIA-MS of whole cell lysates; type: cell-based, Human; conditions: 500 nM, 6 h
# Experimental: Mass spectrometry based DIA analyses of whole cell lysates: Sum159 cells were treated with vehicle or ERX-41 (500 nM). After 6 h of treatment, cells were pelleted and snap-frozen and then lysed in buffer containing 5% SDS/50 mM triethylammonium bicarbonate (TEAB) in the presence of protease and phosphatase inhibitors (Halt; Thermo Scientific) and nuclease (Pierce™ Universal Nuclease for Cell Lysis; Thermo Scientific). Aliquots corresponding to 100 μg protein (EZQ™ Protein Quantitation Kit; Thermo Scientific) were reduced with tris (2-carboxyethyl)phosphine hydrochloride (TCEP), alkylated in the dark with iodoacetamide and applied to S-Traps (mini; Protifi) for tryptic digestion (sequencing grade; Promega) in 50 mM triethylammonium bicarbonate (TEAB). Peptides were eluted from the S-Traps with 0.2% formic acid in 50% aqueous acetonitrile and quantified using Pierce™ Quantitative Fluorometric Peptide Assay (Thermo Scientific). Data-independent acquisition mass spectrometry (DIA-MS) was conducted on an Orbitrap Fusion Lumos mass spectrometer (Thermo Scientific). On-line HPLC separation was accomplished with an RSLC NANO HPLC system (Thermo Scientific/Dionex: column, PicoFrit™ (New Objective; 75 μm i.d.) packed to 15 cm with C18 adsorbent (Vydac; 218MS 5 μm, 300 Å); mobile phase A, 0.5% acetic acid (HAc)/0.005% trifluoroacetic acid (TFA) in water, mobile phase B, 90% acetonitrile/0.5% HAc/0.005% TFA/9.5% water; gradient 3 to 42% B in 120 min; flow rate, 0.4 μl/min. A pool was made of the 6 samples (three replicates from each group), and 2-μg peptide aliquots were analyzed using gas-phase fractionation and 4-m/z windows (30k resolution for precursor and product ion scans, all in the orbitrap) to create a DIA chromatogram library^40 by searching against a Prosit-generated predicted spectral library^41 based on the UniProt_human_20191022 protein sequence database. Experimental samples were blocked by replicate and randomized within each replicate for sample preparation and analysis; injections of 2 μg of peptides and a 2-h HPLC gradient were employed. […]
smiles,measurement,setting,value
CC(C)COc1cc(C(=O)Nc2ccc(C(=O)N[C@H]3CC[C@H](C)CC3)cc2OCC(C)C)ccc1NC(=O)c1ccc([N+](=O)[O-])c(OCCO)c1 [ERX-41],pIC50,[1]; Homo sapiens,6.90 to 7.00
same,pIC50,[1],7.00
same,"enhancement of potency in TNBC, ERX-41 vs ERX-11",[1]; from IC50>10 μM to 100 nM,> 100 fold
same,cells dead,[2],> 90%
same,ER tubule diameter in LIPA KO cells,[3],no significant changes in ER tubule diameter
same,UPR pathway markers in explants,"[4]; IHC, within 24 h after treatment","enhanced pPERK, CHOP (protein product of DDIT3 gene) and peIF2a staining"
same,apoptosis (cleaved caspase 3 staining) of explants,[4]; ex vivo,increased apoptosis
same,proliferation (Ki67 staining) of explants,[4]; ex vivo,decreased proliferation
same,number of cellular proteins with significantly affected expression,[5],189
same,number of down-regulated proteins,[5],153
same,number of up-regulated proteins,[5],36
